According to patent US10294202B2, “Pyrrolidinones as herbicides” (FMC Corporation, priority 2013, dated 2019):

How the values were obtained:
bromegrass, downy = assay: Test D pre-/postemergence herbicide test; assay type: in vivo, Bromus tectorum; conditions: for Plant response rating: Bromegrass, Downy, scale 0 to 100; for Plant response rating, Bromegrass, Downy: scale 0 to 100 (0 no effect, 100 complete control)
Method in brief: (§1)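 Test chemicals, formulated in a non-phytotoxic solvent mixture with surfactant, are sprayed preemergence onto seeds in silt loam and postemergence onto plants of 2–18 cm. Plants are held in a controlled growth environment for 7 to 21 days, then rated visually versus controls (0–100).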

Russian thistle = assay: Test D pre-/postemergence herbicide test; assay type: in vivo, Salsola kali; conditions: for Plant response rating: Postemergence, Russian Thistle, scale 0 to 100; for Plant response rating, Russian Thistle: Preemergence, scale 0 to 100 (0 no effect, 100 complete control)
Method in brief: as §1

wheat, winter = assay: Test D pre-/postemergence herbicide test; assay type: in vivo, Triticum aestivum; conditions: for Plant response rating: Postemergence, Wheat, Winter, scale 0 to 100; for Plant response rating, Wheat, Winter: Preemergence, scale 0 to 100 (0 no effect, 100 complete control)
Method in brief: as §1

beggarticks = assay: Test E preemergence herbicide test; assay type: in vivo, Bidens pilosa; parameters: key: 0 = no effect, 100 = complete control
Method in brief: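 Test chemicals, formulated in a surfactant-containing non-phytotoxic solvent blend, are applied preemergence to seeded silt loam soil. After 21 days in the greenhouse, response is scored visually relative to controls, where 100 means complete control and 0 means no effect.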

foxtail, green = assay: Test C pre-/postemergence herbicide test; assay type: in vivo, Setaria viridis; conditions: Preemergence
Method in brief: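 Greenhouse pots; formulation = non-phytotoxic solvent mix + surfactant. PRE onto seeds in loam:sand; POST at 1–4 leaves (2–18 cm) in peat moss/vermiculite medium. Read-out: visual % control vs untreated, day 13–15.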

Row | SMILES | Plant response rating (bromegrass, downy; Postemergence, 31 g ai/ha) | Plant response rating (bromegrass, downy; Postemergence, 62 g ai/ha) | Plant response rating (bromegrass, downy; Postemergence, 125 g ai/ha) | Plant response rating (bromegrass, downy; Postemergence, 250 g ai/ha) | Plant response rating, Bromegrass, Downy (bromegrass, downy; Preemergence, 62 g ai/ha) | Plant response rating, Bromegrass, Downy (bromegrass, downy; Preemergence, 31 g ai/ha) | Plant response rating (bromegrass, downy; Preemergence, 125 g ai/ha) | Plant response rating (bromegrass, downy; Preemergence, 250 g ai/ha) | Plant response rating (Russian thistle; 31 g ai/ha) | Plant response rating (Russian thistle; 62 g ai/ha) | Plant response rating (Russian thistle; 125 g ai/ha) | Plant response rating (Russian thistle; 250 g ai/ha) | Plant response rating (wheat, winter; 31 g ai/ha) | Plant response rating (wheat, winter; 62 g ai/ha) | Plant response rating (wheat, winter; 125 g ai/ha) | Plant response rating (wheat, winter; 250 g ai/ha) | Plant response rating, Beggarticks (beggarticks; 31 g ai/ha) | Plant response rating, Beggarticks (beggarticks; 62 g ai/ha) | Plant response rating, Beggarticks (beggarticks; 125 g ai/ha) | Plant response rating, Beggarticks (beggarticks; 250 g ai/ha) | other results
1 | O=C1NCC(c2ccc(C(F)(F)F)cc2)C1C(=O)Nc1cccc(F)c1F (centres unmarked) [Compound 80, N-(2,3-difluorophenyl)-2-oxo-4-[4-(trifluoromethyl)phenyl]-3-pyrrolidinecarboxamide] | 15 | 15 | 20 | 20 | 5 | 0 | 5 | 10 | 20 | 30 | 25 | 35 | 0 | 0 | 10 | 5 | 0 | 0 | 20 | 60 | Plant response rating, Wheat, Winter (wheat, winter; 62 g ai/ha): 5; Plant response rating, Wheat, Winter (wheat, winter; 125 g ai/ha): 10; Plant response rating, Wheat, Winter (wheat, winter; 31 g ai/ha): 5; Plant response rating, Wheat, Winter (wheat, winter; 250 g ai/ha): 10; Plant response rating, Beggarticks (beggarticks; 16 g ai/ha): 0
2 | O=C1NCC(c2ccc(Cl)c(Cl)c2)C1C(=O)Nc1ccccc1F (racemic) [Compound 14] |  |  |  |  |  |  |  |  |  |  |  |  |  |  |  |  | 0 | 0 | 0 | 0 | Plant response rating, Foxtail, Green (foxtail, green; 62 g ai/ha, scale 0 to 100): 90; Plant response rating, Foxtail, Green (foxtail, green; 125 g ai/ha, scale 0 to 100 (0 no effect, 100 complete control)): 90; Foxtail, Green plant response rating (foxtail, green; 31 g ai/ha, scale 0 to 100 (0 no effect, 100 complete control)): 25; Plant response rating, Foxtail, Green (foxtail, green; 250 g ai/ha, scale 0 to 100 (0 no effect, 100 complete control)): 95; Plant response rating, Beggarticks (beggarticks; 16 g ai/ha): 0
3 | O=C1NCC(c2ccc(C(F)(F)F)cc2)C1C(=O)Nc1cccc(F)c1F (racemic) [Compound 202] | 0 | 0 | 5 | 15 | 0 | 0 | 0 | 20 | 30 | 30 | 30 | 35 | 0 | 0 | 0 | 0 | 0 | 0 | 35 | 80 | Plant response rating, Russian Thistle (Russian thistle; 62 g ai/ha): 20; Plant response rating, Russian Thistle (Russian thistle; 125 g ai/ha): 35; Plant response rating, Russian Thistle (Russian thistle; 31 g ai/ha): 15; Plant response rating, Russian Thistle (Russian thistle; 250 g ai/ha): 40; Plant response rating, Wheat, Winter (wheat, winter; 62 g ai/ha): 10; Plant response rating, Wheat, Winter (wheat, winter; 125 g ai/ha): 25; Plant response rating, Wheat, Winter (wheat, winter; 31 g ai/ha): 5; Plant response rating, Wheat, Winter (wheat, winter; 250 g ai/ha): 25
